Laboratory results reported in the supplement of paper PMC11061612.

Legend:
Test in all cases: Bliss excess, mean over the matrix (fraction); higher = more synergy
[1] = test system: A4-Fuk (B-Lymphoblastic Leukemia)
Outline: (§1)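 Cell lines in DMEM/F12 or RPMI with 10% FBS were plated in 1536-well plates, held 24 hours at 37°C, 5% CO2, then given two-drug dose matrices for 72 hours (DMSO typically 0.2%). Viability was read by CellTiter-Glo 2.0 luminescence and scaled as inhibition from 0 (vehicle wells) to 1 (blank wells). Combination Emax is the second-highest inhibition in the matrix; Bliss excess is observed combination effect minus expected EA + EB − EA·EB, EA and EB being single-agent effects.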

[2] = test system: COLO-668 (Small Cell Lung Carcinoma)
Outline: as §1

[3] = test system: COLO-679 (Melanoma)
Outline: as §1

[4] = test system: Ca-Ski (Cervical Carcinoma)
Outline: as §1

[5] = test system: DU-145 (Prostate Carcinoma)
Outline: as §1

[6] = test system: EFO-21 (Ovarian Carcinoma)
Outline: as §1

[7] = test system: HAL-01 (B-Lymphoblastic Leukemia)
Outline: as §1

[8] = test system: KGN (Other Solid Carcinomas)
Outline: as §1

[9] = test system: MDA-MB-453 (Breast Carcinoma)
Outline: as §1

[10] = test system: ME-180 (Cervical Carcinoma)
Outline: as §1

[11] = test system: MOLT-4 (T-Lymphoblastic Leukemia)
Outline: as §1

[12] = test system: MV-4-11 (Acute Myeloid Leukemia)
Outline: as §1

[13] = test system: Mo-T (Other Blood Carcinomas)
Outline: as §1

[14] = test system: NCI-H1355 (Lung Adenocarcinoma)
Outline: as §1

[15] = test system: NCI-H1993 (Lung Adenocarcinoma)
Outline: as §1

[16] = test system: OE33 (Esophageal Adenocarcinoma)
Outline: as §1

[17] = test system: SK-N-AS (Neuroblastoma)
Outline: as §1

[18] = test system: SKN (Other Solid Carcinomas)
Outline: as §1

[19] = test system: SW872 (Other Solid Carcinomas)
Outline: as §1

[20] = test system: SW982 (Other Solid Carcinomas)
Outline: as §1

`N#Cc1cnc(Nc2cc(NC[C@H]3CNCCO3)c(C(F)(F)F)cn2)cn1` [SRA737] + CCc1c2c(nc3ccc(O)cc13)-c1cc3c(c(=O)n1C2)COC(=O)[C@]3(O)CC [SN-38] (first compound max 10 µM, 7x7, partner max 0.3 µM) showed a Bliss excess [1] of -0.0229, a Bliss excess [2] of -0.0688 and a Bliss excess [3] of -0.13. The Bliss excess [4] was 0.0291, the Bliss excess [5] was -0.0338 and the Bliss excess [6] was -0.0498. For the same compound, the Bliss excess [7] was -0.0125, the Bliss excess [8] was -0.0554 and the Bliss excess [9] was -0.0401. It also gave a Bliss excess [10] of 0.0247, a Bliss excess [11] of 0.002 and a Bliss excess [12] of -0.0337. For the same compound, the Bliss excess [13] was -0.0363, the Bliss excess [14] was 0.071 and the Bliss excess [15] was 0.0615. The Bliss excess [16] was -0.0371, the Bliss excess [17] was 0.0144 and the Bliss excess [18] was 0.0673. It also gave a Bliss excess [19] of -0.0142 and a Bliss excess [20] of -0.0929.

`CN(CCO)CC[C@H](CSc1ccccc1)Nc1ccc(S(=O)(=O)NC(=O)c2ccc(N3CCC([C@@H](O)c4ccccc4-c4ccc(Cl)cc4)CC3)cc2)cc1S(=O)(=O)C(F)(F)F` [AZD4320] + C[C@@H]1COCCN1C2=NC(=NC(=C2)C3(CC3)[S@](=N)(=O)C)C4=C5C=CNC5=NC=C4 [AZD6738] (first compound max 1 µM, 7x7, partner max 10 µM) was tested, and the Bliss excess [1] was -0.0169, the Bliss excess [2] was 0.0325 and the Bliss excess [3] was -0.0266. The Bliss excess [4] was -0.006, the Bliss excess [5] was -0.0335 and the Bliss excess [6] was -0.0312. For the same compound, the Bliss excess [7] was 0.0405, the Bliss excess [8] was -0.0198 and the Bliss excess [9] was -0.0453. For the same compound, the Bliss excess [10] was 0.0005, the Bliss excess [11] was -0.0084 and the Bliss excess [12] was -0.0066. It also gave a Bliss excess [13] of 0.0358, a Bliss excess [14] of -0.0273 and a Bliss excess [15] of -0.0073. The Bliss excess [16] was -0.0295, the Bliss excess [17] was -0.0421 and the Bliss excess [18] was -0.0394. The Bliss excess [19] was -0.039 and the Bliss excess [20] was -0.0374.

In the case of `N#Cc1cnc(Nc2cc(NC[C@H]3CNCCO3)c(C(F)(F)F)cn2)cn1` [SRA737] + O=c1[nH]cc(F)c(=O)[nH]1 [5-Fluorouracil] (first compound max 10 µM, 7x7, partner max 20 µM), the Bliss excess [1] was 0.0129, the Bliss excess [2] was 0.0106 and the Bliss excess [3] was -0.148. It also gave a Bliss excess [4] of 0.0604, a Bliss excess [5] of 0.0735 and a Bliss excess [6] of -0.006. The Bliss excess [7] was -0.0463, the Bliss excess [8] was 0.002 and the Bliss excess [9] was 0.108. The Bliss excess [10] was 0.0272, the Bliss excess [11] was 0.013 and the Bliss excess [12] was 0.004. The Bliss excess [13] was 0.0056, the Bliss excess [14] was 0.0349 and the Bliss excess [15] was 0.059. It also gave a Bliss excess [16] of 0.0184, a Bliss excess [17] of -0.0291 and a Bliss excess [18] of -0.0266. It also gave a Bliss excess [19] of 0.0629 and a Bliss excess [20] of 0.0157.

In the case of `CN(CCO)CC[C@H](CSc1ccccc1)Nc1ccc(S(=O)(=O)NC(=O)c2ccc(N3CCC([C@@H](O)c4ccccc4-c4ccc(Cl)cc4)CC3)cc2)cc1S(=O)(=O)C(F)(F)F` [AZD4320] + C[C@@H](Nc1cc(F)cc(F)c1)c1cc(C(=O)N(C)C)cc2c(=O)cc(N3CCOCC3)oc12 [AZD8186] (first compound max 1 µM, 7x7, partner max 3 µM), the Bliss excess [1] was 0.0025, the Bliss excess [2] was 0.0083 and the Bliss excess [3] was -0.0469. It also gave a Bliss excess [4] of 0.0605, a Bliss excess [5] of -0.0296 and a Bliss excess [6] of 0.0323. It also gave a Bliss excess [7] of 0.0337, a Bliss excess [8] of 0.0014 and a Bliss excess [9] of 0.02. For the same compound, the Bliss excess [10] was -0.0137, the Bliss excess [11] was -0.0129 and the Bliss excess [12] was 0.0114. For the same compound, the Bliss excess [13] was 0.0075, the Bliss excess [14] was 0.0082 and the Bliss excess [15] was 0.0156. For the same compound, the Bliss excess [16] was -0.0082, the Bliss excess [17] was 0.0214 and the Bliss excess [18] was 0.0522. The Bliss excess [19] was 0.0462 and the Bliss excess [20] was 0.0078.

For `C[C@@H](c1ccc2nccn2c1)n1nnc2ncc(-c3cnn(C)c3)nc21` [Savolitinib] + Cc1c2c(nn1C)CSCc1cc(n(C)n1)CSc1cc(c3ccccc3c1)OCCCc1c(C(=O)O)n(C)c3c-2c(Cl)ccc13 [AZD5991] (first compound max 1 µM, 7x7, partner max 1 µM), the Bliss excess [1] was 0.0027, the Bliss excess [2] was -0.0417 and the Bliss excess [3] was -0.0398. The Bliss excess [4] was -0.0287, the Bliss excess [5] was -0.0361 and the Bliss excess [6] was -0.0454. The Bliss excess [7] was 0.0173, the Bliss excess [8] was -0.0302 and the Bliss excess [9] was 0.0354. The Bliss excess [10] was -0.0651, the Bliss excess [11] was 0.0706 and the Bliss excess [12] was -0.034. The Bliss excess [13] was -0.056, the Bliss excess [14] was -0.0155 and the Bliss excess [15] was -0.0338. The Bliss excess [16] was -0.0152, the Bliss excess [17] was -0.0749 and the Bliss excess [18] was -0.0279. For the same compound, the Bliss excess [19] was 0.003 and the Bliss excess [20] was -0.0647.

In the case of `Cc1cc2ncnn2cc1Nc1ncc2c(n1)n(C1CCOCC1)c(=O)n2C` [AZD7648] + C[C@@H]1COCCN1C2=NC(=NC(=C2)C3(CC3)[S@](=N)(=O)C)C4=C5C=CNC5=NC=C4 [AZD6738] (first compound max 10 µM, 7x7, partner max 10 µM), the Bliss excess [1] was -0.0768, the Bliss excess [2] was 0.0093 and the Bliss excess [3] was -0.0486. The Bliss excess [4] was 0.0404, the Bliss excess [5] was -0.0068 and the Bliss excess [6] was 0.053. For the same compound, the Bliss excess [7] was -0.0048, the Bliss excess [8] was 0.0439 and the Bliss excess [9] was 0.0076. It also gave a Bliss excess [10] of -0.002, a Bliss excess [11] of 0.0427 and a Bliss excess [12] of -0.0469. It also gave a Bliss excess [13] of -0.0956, a Bliss excess [14] of 0.0296 and a Bliss excess [15] of 0.0469. The Bliss excess [16] was -0.0187, the Bliss excess [17] was 0.0381 and the Bliss excess [18] was 0.0038. For the same compound, the Bliss excess [19] was 0.0801 and the Bliss excess [20] was -0.096.

Compound `CN(CCO)CC[C@H](CSc1ccccc1)Nc1ccc(S(=O)(=O)NC(=O)c2ccc(N3CCC([C@@H](O)c4ccccc4-c4ccc(Cl)cc4)CC3)cc2)cc1S(=O)(=O)C(F)(F)F` [AZD4320] + CC(=O)O[C@H]1C(=O)[C@@]2(C)[C@H]([C@H](OC(=O)c3ccccc3)[C@]3(O)C[C@H](OC(=O)[C@H](O)[C@@H](NC(=O)c4ccccc4)c4ccccc4)C(C)=C1C3(C)C)[C@]1(OC(C)=O)CO[C@@H]1C[C@@H]2O [Paclitaxel] (first compound max 1 µM, 7x7, partner max 3 µM) has a Bliss excess [1] of -0.0556, a Bliss excess [2] of 0.125 and a Bliss excess [3] of -0.0012. It also gave a Bliss excess [4] of 0.114, a Bliss excess [5] of 0.0406 and a Bliss excess [6] of 0.0978. For the same compound, the Bliss excess [7] was 0.0634, the Bliss excess [8] was 0.0039 and the Bliss excess [9] was 0.249. The Bliss excess [10] was 0.139, the Bliss excess [11] was 0.0099 and the Bliss excess [12] was 0.0055. For the same compound, the Bliss excess [13] was 0.163, the Bliss excess [14] was 0.0513 and the Bliss excess [15] was 0.0851. The Bliss excess [16] was 0.0836, the Bliss excess [17] was 0.0584 and the Bliss excess [18] was 0.13. It also gave a Bliss excess [19] of -0.0047 and a Bliss excess [20] of 0.0272.

`COc1cc2ncnc(Nc3ccc(F)c(Cl)c3)c2cc1OCCCN1CCOCC1` [Gefitinib] + CC(C)n1c(=O)n(C)c2cnc3cc(F)c(-c4ccc(OCCCN5CCCCC5)nc4)cc3c21 [AZD1390] (first compound max 10 µM, 7x7, partner max 0.3 µM) was tested, and the Bliss excess [1] was -0.0704, the Bliss excess [2] was -0.0333 and the Bliss excess [3] was -0.0901. The Bliss excess [4] was -0.0785, the Bliss excess [5] was -0.06 and the Bliss excess [6] was -0.0875. It also gave a Bliss excess [7] of 0, a Bliss excess [8] of -0.0632 and a Bliss excess [9] of -0.0171. It also gave a Bliss excess [10] of -0.0413, a Bliss excess [11] of 0.009 and a Bliss excess [12] of -0.0534. The Bliss excess [13] was -0.0475, the Bliss excess [14] was -0.039 and the Bliss excess [15] was -0.0506. For the same compound, the Bliss excess [16] was -0.0434, the Bliss excess [17] was -0.0588 and the Bliss excess [18] was -0.0548. For the same compound, the Bliss excess [19] was -0.025 and the Bliss excess [20] was -0.0861.

`COc1cc2c(cc1OCCCCCOc1cc3c(cc1OC)C(=O)N1C=C(C)C[C@H]1C=N3)N=C[C@@H]1CC(C)=CN1C2=O` [SG3199] + O=C(c1cc(Cc2n[nH]c(=O)c3ccccc23)ccc1F)N1CCN(C(=O)C2CC2)CC1 [Olaparib] (first compound max 0.001 µM, 7x7, partner max 10 µM) showed a Bliss excess [1] of -0.0267, a Bliss excess [2] of -0.0003 and a Bliss excess [3] of -0.0285. For the same compound, the Bliss excess [4] was -0.0425, the Bliss excess [5] was -0.0361 and the Bliss excess [6] was -0.0709. For the same compound, the Bliss excess [7] was 0.0067, the Bliss excess [8] was -0.04 and the Bliss excess [9] was -0.0226. The Bliss excess [10] was -0.0495, the Bliss excess [11] was 0.0061 and the Bliss excess [12] was 0.0066. The Bliss excess [13] was 0.0118, the Bliss excess [14] was -0.0503 and the Bliss excess [15] was -0.0352. It also gave a Bliss excess [16] of -0.0276, a Bliss excess [17] of -0.0176 and a Bliss excess [18] of -0.0373. For the same compound, the Bliss excess [19] was -0.0209 and the Bliss excess [20] was -0.0195.

In the case of `Cc1cc2ncnn2cc1Nc1ncc2c(n1)n(C1CCOCC1)c(=O)n2C` [AZD7648] + COc1cc([C@@H]2c3cc4c(cc3[C@@H](O[C@@H]3O[C@@H]5CO[C@@H](C)O[C@H]5[C@H](O)[C@H]3O)[C@H]3COC(=O)[C@H]23)OCO4)cc(OC)c1O [Etoposide] (first compound max 10 µM, 7x7, partner max 10 µM), the Bliss excess [1] was -0.0187, the Bliss excess [2] was 0.0429 and the Bliss excess [3] was -0.0745. For the same compound, the Bliss excess [4] was 0.103, the Bliss excess [5] was 0.0001 and the Bliss excess [6] was 0.0562. For the same compound, the Bliss excess [7] was 0.0962, the Bliss excess [8] was 0.114 and the Bliss excess [9] was -0.0136. The Bliss excess [10] was 0.12, the Bliss excess [11] was 0.167 and the Bliss excess [12] was 0.115. It also gave a Bliss excess [13] of 0.0928, a Bliss excess [14] of 0.0529 and a Bliss excess [15] of -0.0083. It also gave a Bliss excess [16] of 0.0247, a Bliss excess [17] of 0.0684 and a Bliss excess [18] of 0.0503. The Bliss excess [19] was 0.106 and the Bliss excess [20] was 0.142.
